The record followed here is patent US11040028B2, “Penicinotam derivative, preparation method and use thereof” (OCEAN UNIVERSITY OF CHINA, priority 2017, dated 2021).

Common to all, as to type: cell-based
Assay [1] deals with human embryonic lung fibroblast IMR-90. The experiment in a line: Anti-fibrosis activity test: inhibition of proliferation of human embryonic lung fibroblast IMR-90 (CCK-8). The settings on record: human embryonic lung fibroblast IMR-90, CCK-8, 48 hours. Summed up:
(§1)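 Read-out: absorbance at 450 nm after 2 h with CCK-8, following 48 h of compound exposure of adhered cells (2×10^4 cells/mL, 24 h attachment, 37° C, 5% CO2). Proliferation inhibition was taken relative to the blank control, and IC50 values were calculated from it.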

The test system of assay [2] is human dermal fibroblasts CCC-ESF-1. The experiment in a line: Anti-fibrosis activity test: inhibition of proliferation of human dermal fibroblasts CCC-ESF-1 (CCK-8). The settings on record: Fibroblast; human dermal fibroblasts CCC-ESF-1, CCK-8, 48 hours. Summed up:
as §1

The subject of assay [3] is cardiac fibroblast RAT-iCell-C002. The experiment in a line: Anti-fibrosis activity test: inhibition of proliferation of cardiac fibroblast RAT-iCell-C002 (CCK-8). To be noted: Cardiac fibroblast, 48 h, cardiac fibroblast RAT-iCell-C002, CCK-8, 48 hours. Summed up: as §1
The subject of a further assay is NF-κB. Kind of assay: Immunological activity test: inhibition of NF-κB activity. To be noted: initial concentration of 30 μM; a/b isomers given as first/second symbol; read-out: IC50 (μM), inhibitory activity against NF-κB. Summed up: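 IC50 values come from further analysis of the data after an initial test at a single 30 μM concentration. Parthenolide served as the reference inhibitor.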

Assay [4] relates to mouse macrophages (RAW264.7). The experiment in a line: Lipopolysaccharide-induced NO secretion in macrophages (Griess). The settings on record: Mus musculus, RAW264.7, 24 h, RAW264.7, LPS 1 μg/ml, a/b isomers given as first/second symbol, read-out: IC50 (μM), inhibition of lipopolysaccharide-induced NO secretion in macrophages. The method in brief: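 Absorbance at 548 nm after Griess reagent addition to culture supernatant gave NO content; inhibition rate was derived relative to blank control. Cells were mouse RAW264.7 macrophages exposed to compounds and 1 μg/ml LPS for 24 hours.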
(In general: Griess reagent forms a coloured azo dye with nitrite.)

Another assay deals with BHK-21 cells. Kind of assay: Anti-fibrosis activity test: inhibition of BHK-21 cell proliferation (CCK-8). To be noted: Mesocricetus auratus, BHK-21, 48 h, CCK-8, 48 hours after administration. Summed up:
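Proliferation of BHK-21 cells is measured by CCK-8 at 450 nm following 48 h compound exposure at several concentrations. Inhibition is expressed relative to blank control and IC50 is computed from it.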

For assay [5], the system named is human hepatic stellate cells LX-2. Kind of assay: Anti-fibrosis activity test: inhibition of proliferation of human hepatic stellate cells LX-2 (CCK-8). The settings on record: Homo sapiens, 48 h, human hepatic stellate cells LX-2, CCK-8, 48 hours. Summed up: as §1
For assay [6], the system named is human lung fibroblasts HFL1. Kind of assay: Anti-fibrosis activity test: inhibition of proliferation of human lung fibroblasts HFL1 (CCK-8). The settings on record: Homo sapiens, HFL1, 48 h, human lung fibroblasts HFL1, CCK-8, 48 hours. The method in brief:
as §1

The test system of assay [7] is human fibrosarcoma cells HT-1080. Kind of assay: Anti-fibrosis activity test: inhibition of proliferation of human fibrosarcoma cells HT-1080 (CCK-8). To be noted: Homo sapiens, HT-1080, 48 h, human fibrosarcoma cells HT-1080, CCK-8, 48 hours. Summed up: as §1

Broadly, the IC50 is the concentration that inhibits the measured activity by half. On to `O=C1c2c(nc3cccc(F)c3c2OCc2ccc(F)cc2)-c2cccn21` [Compound 468b, 8-fluoro-9-((4-fluorobenzyl)oxy)-10H-pyrrolizino[1,2-b]quinolin-10-one], for which the half-inhibitory concentration (IC50) in [1] was in the range of 0.05 to 5 mM; in [2], 0.05 to 5 mM; in assay [3] it was 0.05 to 5 mM; with NF-κB, 1 to 10 µM; in assay [4] it was 1 to 10 µM; in the assay with BHK-21 cells it was 0.05 to 5 mM. The IC50 in [5], in assay [6] and in [7] was 0.05 to 5 mM each time.
For `COc1cccc2[nH]c3c(c(=O)c12)C(=O)n1cccc1-3` [Compound 473a, 8-Methoxy-9H-pyrrolizino[1,2-b]quinoline-9,10(4H)-dione], the concentration for half-maximal inhibition (IC50) in assay [1] is 0.05 to 5 mM; in [2], 0.05 to 5 mM; in [3], under 0.05 mM; with NF-κB, 1 to 10 µM; in assay [4] it was 1 to 10 µM; in the assay with BHK-21 cells it was 0.05 to 5 mM. Moreover, the concentration for half-maximal inhibition (IC50) in [5], in assay [6] and in [7] was 0.05 to 5 mM in each case.
`COc1cccc2nc3c(c(O)c12)C(=O)n1cccc1-3` [Compound 473b, 9-hydroxy-8-methoxy-10H-pyrrolizino[1,2-b]quinolin-10-one]: the IC50 lay in the range of 0.05 to 5 mM in assay [1]; 0.05 to 5 mM in assay [2]; 0.05 to 5 mM in assay [3]; 1 to 10 µM in the assay on NF-κB; 1 to 10 µM in assay [4]; 0.05 to 5 mM with BHK-21 cells. Also, the half-maximal inhibitory concentration (IC50) in [5], in assay [6] and in assay [7] was 0.05 to 5 mM each time.
Regarding `N#Cc1cccc2[nH]c3c(c(=O)c12)C(=O)n1cccc1-3` [Compound 476a, 9,10-Dioxo-4,10-dihydro-9H-pyrrolizino[1,2-b]quinoline-8-carbonitrile], the IC50 in assay [1] is 0.05 to 5 mM; in assay [2], 0.05 to 5 mM; in [3], 0.05 to 5 mM; with NF-κB it was 10 to 50 µM; in [4], 1 to 10 µM; in the assay on BHK-21 cells it was under 0.05 mM. The IC50 in assay [5], in assay [6] and in assay [7] was 0.05 to 5 mM each time.
Take `N#Cc1cccc2nc3c(c(O)c12)C(=O)n1cccc1-3` [Compound 476b, 9-hydroxy-10-oxo-10H-pyrrolizino[1,2-b]quinoline-8-carbonitrile]: the IC50 lay within 0.05 to 5 mM in [1]; 0.05 to 5 mM in assay [2]; 0.05 to 5 mM in [3]; 10 to 50 µM in the assay with NF-κB; 1 to 10 µM in [4]; 0.05 to 5 mM in the assay with BHK-21 cells. Further, the IC50 in assay [5], in [6] and in assay [7] was 0.05 to 5 mM throughout.
On to `O=C1c2c(n(Cc3ccc(Cl)cc3)c3cccc(Cl)c3c2=O)-c2cccn21` [Compound 477a, 8-Chloro-4-(4-chlorobenzyl)-9H-pyrrolizino[1,2-b]quinoline-9,10(4H)-dione], for which the IC50 in assay [1] lay within 0.05 to 5 mM; in assay [2] it was 0.05 to 5 mM; in [3], 0.05 to 5 mM; in the assay with NF-κB, 10 to 50 µM; in assay [4] it was 1 to 10 µM; with BHK-21 cells, 0.05 to 5 mM. In addition, the concentration for half-maximal inhibition (IC50) in assay [5], in [6] and in assay [7] was 0.05 to 5 mM each time.
As for `O=C1c2c(nc3cccc(Cl)c3c2OCc2ccc(Cl)cc2)-c2cccn21` [Compound 477b, 8-chloro-9-((4-chlorobenzyl)oxy)-10H-pyrrolizino[1,2-b]quinolin-10-one], the IC50 in assay [1] was 0.05 to 5 mM; in [2], 0.05 to 5 mM; in assay [3] it was 0.05 to 5 mM; in the assay with NF-κB, 10 to 50 µM; in assay [4] it was 1 to 10 µM; in the assay on BHK-21 cells, 0.05 to 5 mM. Besides, the IC50 in assay [5], in assay [6] and in assay [7] was 0.05 to 5 mM each time.
Regarding `O=C1c2c(n(Cc3cccc(Cl)c3)c3cccc(Cl)c3c2=O)-c2cccn21` [Compound 478a, 8-Chloro-4-(3-chlorobenzyl)-9H-pyrrolizino[1,2-b]quinoline-9,10(4H)-dione], the IC50 in assay [1] is 0.05 to 5 mM; in [2], 0.05 to 5 mM; in assay [3], 0.05 to 5 mM; with NF-κB it was 10 to 50 µM; in [4], 0.1 to 1 µM; in the assay on BHK-21 cells, 0.05 to 5 mM. For the same molecule, the concentration for half-maximal inhibition (IC50) in assay [5], in assay [6] and in assay [7] was 0.05 to 5 mM in each case.
As to `O=C1c2c(nc3cccc(Cl)c3c2OCc2cccc(Cl)c2)-c2cccn21` [Compound 478b, 8-chloro-9-((3-chlorobenzyl)oxy)-10H-pyrrolizino[1,2-b]quinolin-10-one], the IC50 in assay [1] lay in the range of 0.05 to 5 mM; in [2] it was 0.05 to 5 mM; in assay [3], 0.05 to 5 mM; in the assay on NF-κB, 10 to 50 µM; in assay [4] it was 1 to 10 µM; with BHK-21 cells it was 0.05 to 5 mM. Moreover, the IC50 in [5], in [6] and in assay [7] was 0.05 to 5 mM throughout.
In the case of `O=C1c2c([nH]c3cccc(C(F)(F)F)c3c2=O)-c2cccn21` [Compound 479a, 8-(Trifluoromethyl)-9H-pyrrolizino[1,2-b]quinoline-9,10(4H)-dione], the IC50 in assay [1] was 0.05 to 5 mM; in [2], 0.05 to 5 mM; in assay [3], 0.05 to 5 mM; in the assay with NF-κB it was 10 to 50 µM; in assay [4], 10 to 50 µM; in the assay on BHK-21 cells it was under 0.05 mM. For the same molecule, the IC50 in assay [5], in [6] and in assay [7] was 0.05 to 5 mM each time.
As to `O=C1c2c(nc3cccc(C(F)(F)F)c3c2O)-c2cccn21` [Compound 479b, 9-hydroxy-8-(trifluoromethyl)-10H-pyrrolizino[1,2-b]quinolin-10-one], the IC50 lay within 0.05 to 5 mM in assay [1]; 0.05 to 5 mM in assay [2]; 0.05 to 5 mM in assay [3]; 1 to 10 µM in the assay with NF-κB; 1 to 10 µM in [4]; 0.05 to 5 mM in the assay on BHK-21 cells. The half-inhibitory concentration (IC50) in [5], in assay [6] and in assay [7] was 0.05 to 5 mM each time.
As to `O=C1c2c([nH]c3cc(F)ccc3c2=O)-c2cccn21` [Compound 488a, 6-Fluoro-9H-pyrrolizino[1,2-b]quinoline-9,10(4H)-dione], the IC50 in assay [1] lay in the range of 0.05 to 5 mM; in assay [2] it was 0.05 to 5 mM; in assay [3], 0.05 to 5 mM; in the assay on NF-κB, 1 to 10 µM; in assay [4] it was 10 to 50 µM; in the assay on BHK-21 cells, 0.05 to 5 mM. Further, the IC50 was under 0.05 mM in assay [5], 0.05 to 5 mM in assay [6] and 0.05 to 5 mM in assay [7].
With `O=C1c2c(nc3cc(F)ccc3c2O)-c2cccn21` [Compound 488b, 6-fluoro-9-hydroxy-10H-pyrrolizino[1,2-b]quinolin-10-one], the IC50 in assay [1] lay within 0.05 to 5 mM; in assay [2], 0.05 to 5 mM; in assay [3] it was 0.05 to 5 mM; in the assay on NF-κB it was 10 to 50 µM; in assay [4], 1 to 10 µM; in the assay with BHK-21 cells it was 0.05 to 5 mM. For the same molecule, the 50% inhibitory concentration (IC50) in assay [5], in assay [6] and in assay [7] was 0.05 to 5 mM in each case.
As for `O=C1c2c(n(Cc3ccc(Cl)cc3)c3cc(F)ccc3c2=O)-c2cccn21` [Compound 496a, 4-(4-Chlorobenzyl)-6-fluoro-9H-pyrrolizino[1,2-b]quinoline-9,10(4H)-dione], the concentration for half-maximal inhibition (IC50) in assay [1] fell in the range of 0.05 to 5 mM; in assay [2], 0.05 to 5 mM; in assay [3], 0.05 to 5 mM; with NF-κB, 10 to 50 µM; in assay [4] it was 10 to 50 µM; in the assay with BHK-21 cells, 0.05 to 5 mM. Moreover, the half-maximal inhibitory concentration (IC50) in [5], in [6] and in assay [7] was 0.05 to 5 mM in each case.
With `O=C1c2c(nc3cc(F)ccc3c2OCc2ccc(Cl)cc2)-c2cccn21` [Compound 496b, 9-((4-chlorobenzyl)oxy)-6-fluoro-10H-pyrrolizino[1,2-b]quinolin-10-one], the half-maximal inhibitory concentration (IC50) in [1] was in the range of 0.05 to 5 mM; in assay [2], 0.05 to 5 mM; in [3], 0.05 to 5 mM; in the assay with NF-κB, 10 to 50 µM; in assay [4], 1 to 10 µM; in the assay with BHK-21 cells it was 0.05 to 5 mM. For the same molecule, the IC50 in [5], in assay [6] and in assay [7] was 0.05 to 5 mM throughout.
